# According to patent US9670213B2, “Pteridine ketone derivative and applications thereof as EGFR, BLK, and FLT3 inhibitor” (EAST CHINA UNIVERSITY OF SCIENCE AND TECHNOLOGY, priority 2012, dated 2017):
# What was measured:
# Type in all cases: biochemical
# BRAF = BRAF (Homo sapiens (Human), UniProt P15056); assay: Kinase selectivity analysis (BRAF analysis); conditions: for inhibition at 1 µM: read-out: % inhibition (1 μM), 1 μM; for inhibition at 10 µM: read-out: % inhibition (10 μM), 10 μM
# Procedure: Kinase selectivity analysis: kinase selectivity experiment was performed by Shanghai ChemPartner using Caliper assay screening platform. All of kinases and other materials were purchased from commercial companies.
# 1. Preparation of 1× Kinase Buffer: 50 mM HEPES, pH 7.5, 10 mM MgCl2, 1 mM EGTA, 0.01% BRIJ-35.
# 2. Preparation of compounds for BRAF kinase test: 1) serial dilution of compound and preparation of stock solution plate. The compound was diluted in 100% DMSO to a concentration, which was 100 times of the highest concentration used in reaction, and 100 μL of the compound solution as said above was transferred into wells of 96-well plate. 30 μL of compound solution was transferred into 60 μL of 100% DMSO in the adjacent well, and the above operation was repeated for sequentially diluting the compound. 100 μL of 100% DMSO was added into two blank wells as no-compound and no-enzyme control, the plate was marked as stock solution plate. 2) Preparation of temporary plate. 4 μL of compound solution from the stock solution plate was transferred to another 96-well plate, 96 μL of 1× kinase buffer was added into each well, and the temporary plate was placed on a shaker and shaken for 10 mins for uniformly mixing the compound. 3) Preparation of assay plate. 2.5 μL of solution from each well of the 96-well temporary plate was added into a 384-well plate, and the experiment was independently repeated.
# 3. Kinase BRAF reaction: 1) Preparation of 2× kinase solution. BRAF solution was prepared in 1× kinase buffer, the concentration of which was 2 times of the final concentration in the test. 5 μL of kinase solution was added into each well of the assay plate (except for control well, into which 5 μL of 1× kinase buffer was added), and the assay plate was shaken. 2) Preparation of 4× substrate solution. Fluorescein-MAP2K1, ATP substrate solution was prepared in 1× kinase buffer, the concentration of which was 4 times of the final concentration in the test. 2.5 μL of substrate solution was added into each well of the assay plate to start the reaction, and the assay plate was shaken. 3) The kinase reaction was conducted by incubating at room temperature for 1 hour.
# 4. Kinase assay. Test solution was prepared in antibody dilution buffer, the concentration of which was 2 times of the following final concentration: antibody 2 nM, EDTA […]. 10 μL of test solution was added into each well of the assay plate to quench the assay. […]
# 5. Read data: the data was read on Envision (excitation at 340 nm, emission at 520 nm, […]).
# 6. […] The rate of RFU […] was calculated and converted into inhibition rate % Inhibition rate %=(maximum−rate of sample)/(maximum−minimum)*100, wherein “maximum” represents DMSO control rate, and “minimum” represents the no-enzyme control rate. […]
# EGFR-L858R = EGFR-L858R (Homo sapiens (Human), UniProt P00533, L858R); assay: In vitro EGFR kinase activity assay (Z'-Lyte); conditions: read-out: Inhibitory activity on EGFR kinase (IC50, nM) L858R;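 further: Cell-free kinase reaction with peptide substrate and ATP, 1.5 h at room temperature, then development step cleaving non-phosphorylated peptide, 10-point dilution series 0.051–1000 nM, phosphopeptide as 100% phosphorylation control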
# Procedure: (§1) Inhibitory effects in vitro of the compounds provided in the present invention on EGFR kinase activity was tested as follows:
# (§2) 10 concentration gradients, from 5.1×10^−11 mol/L to 1.0×10^−6 mol/L, were set for all of the compounds to be tested.
# (§3) 10 μL of kinase reaction system comprised 2.5 μL of compound solution, 5 μL of Kinase/peptide mixture, and 2.5 μL of ATP solution. 5 μL of phosphopeptide solution was used in place of kinase/peptide mixture as 100% phosphorylation control. […] After thoroughly mixing the solution within the plate, the plate was incubated at room temperature for 1.5 hours. 5 μL of DevelopmentSolution was added into each well, and then the plate was incubated at room temperature for another 1 hour, and non-phosphorylated peptide was cleaved within this period. Finally, the reaction was quenched by adding 5 μL of Stop Reagent. The Plate was measured with EnVision Multilabel Reader (Perkin Elmer). Experimental data were calculated by using GraphPad Prism version 4.0. Each experiment was repeated more than three times.
# wild-type EGFR = wild-type EGFR (Homo sapiens (Human), UniProt P00533); assay: In vitro EGFR kinase activity assay (Z'-Lyte); conditions: EGFR WT; read-out: Inhibitory activity on EGFR kinase (IC50, nM) WT;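 further: Ten-point dose series from 5.1×10^−11 to 1.0×10^−6 mol/L, kinase reaction 1.5 h at room temperature, then 1 h development cleaving unphosphorylated peptide, phosphopeptide as 100% phosphorylation control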
# Chain of wild-type EGFR (P00533 25-1210): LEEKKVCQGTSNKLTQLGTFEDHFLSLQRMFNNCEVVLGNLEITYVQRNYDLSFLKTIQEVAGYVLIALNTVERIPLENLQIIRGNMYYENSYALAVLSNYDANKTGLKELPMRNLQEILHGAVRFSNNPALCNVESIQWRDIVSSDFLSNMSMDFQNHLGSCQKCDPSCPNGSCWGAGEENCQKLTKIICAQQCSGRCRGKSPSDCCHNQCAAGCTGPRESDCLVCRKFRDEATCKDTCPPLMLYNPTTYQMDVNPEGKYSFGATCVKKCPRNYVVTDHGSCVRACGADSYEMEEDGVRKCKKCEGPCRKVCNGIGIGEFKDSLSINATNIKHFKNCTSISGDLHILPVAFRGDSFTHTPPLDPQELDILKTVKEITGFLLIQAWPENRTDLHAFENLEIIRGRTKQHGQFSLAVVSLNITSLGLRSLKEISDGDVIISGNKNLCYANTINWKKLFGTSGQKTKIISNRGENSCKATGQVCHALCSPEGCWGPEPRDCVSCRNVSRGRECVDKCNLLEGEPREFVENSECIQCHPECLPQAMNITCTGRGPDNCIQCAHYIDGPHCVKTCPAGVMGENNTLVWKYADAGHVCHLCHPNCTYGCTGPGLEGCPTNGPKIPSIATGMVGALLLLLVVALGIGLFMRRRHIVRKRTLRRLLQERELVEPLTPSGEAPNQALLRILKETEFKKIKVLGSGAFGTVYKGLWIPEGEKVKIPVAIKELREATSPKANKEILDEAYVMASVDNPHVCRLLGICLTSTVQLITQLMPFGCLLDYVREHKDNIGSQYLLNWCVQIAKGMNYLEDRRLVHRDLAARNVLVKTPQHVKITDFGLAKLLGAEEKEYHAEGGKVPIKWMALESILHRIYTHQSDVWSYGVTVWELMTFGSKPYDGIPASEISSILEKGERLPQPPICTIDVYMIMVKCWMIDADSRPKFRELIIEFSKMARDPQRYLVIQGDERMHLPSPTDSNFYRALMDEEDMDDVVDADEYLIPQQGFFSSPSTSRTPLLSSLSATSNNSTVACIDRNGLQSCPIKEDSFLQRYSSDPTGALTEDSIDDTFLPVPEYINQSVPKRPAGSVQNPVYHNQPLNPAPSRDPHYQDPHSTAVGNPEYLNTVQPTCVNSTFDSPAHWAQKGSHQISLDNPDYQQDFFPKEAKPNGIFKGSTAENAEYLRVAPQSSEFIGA
# Procedure: as §1, §2, §3
# Chain of BRAF (P15056 whole entry, species assumed): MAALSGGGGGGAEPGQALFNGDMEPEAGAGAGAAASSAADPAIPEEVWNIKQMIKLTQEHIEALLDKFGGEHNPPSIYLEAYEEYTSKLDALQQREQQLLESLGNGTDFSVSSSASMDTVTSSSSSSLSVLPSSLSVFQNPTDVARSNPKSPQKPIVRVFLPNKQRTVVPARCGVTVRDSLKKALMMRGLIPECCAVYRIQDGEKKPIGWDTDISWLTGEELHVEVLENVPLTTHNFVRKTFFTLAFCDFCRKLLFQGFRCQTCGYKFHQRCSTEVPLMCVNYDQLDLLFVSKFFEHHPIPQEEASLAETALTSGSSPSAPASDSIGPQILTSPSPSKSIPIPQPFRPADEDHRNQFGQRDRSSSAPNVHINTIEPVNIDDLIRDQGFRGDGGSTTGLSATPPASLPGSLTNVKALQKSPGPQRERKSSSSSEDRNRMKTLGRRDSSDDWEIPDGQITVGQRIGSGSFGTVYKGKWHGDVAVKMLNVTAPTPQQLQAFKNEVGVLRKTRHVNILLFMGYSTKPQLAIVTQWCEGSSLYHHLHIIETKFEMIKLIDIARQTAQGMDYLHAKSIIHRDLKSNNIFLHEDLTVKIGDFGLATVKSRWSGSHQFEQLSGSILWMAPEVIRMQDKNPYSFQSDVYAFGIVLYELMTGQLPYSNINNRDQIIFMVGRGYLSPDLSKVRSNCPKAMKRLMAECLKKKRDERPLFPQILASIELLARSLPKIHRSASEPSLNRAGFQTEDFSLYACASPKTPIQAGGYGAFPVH
# Chain of EGFR-L858R (P00533 25-1210 L858R): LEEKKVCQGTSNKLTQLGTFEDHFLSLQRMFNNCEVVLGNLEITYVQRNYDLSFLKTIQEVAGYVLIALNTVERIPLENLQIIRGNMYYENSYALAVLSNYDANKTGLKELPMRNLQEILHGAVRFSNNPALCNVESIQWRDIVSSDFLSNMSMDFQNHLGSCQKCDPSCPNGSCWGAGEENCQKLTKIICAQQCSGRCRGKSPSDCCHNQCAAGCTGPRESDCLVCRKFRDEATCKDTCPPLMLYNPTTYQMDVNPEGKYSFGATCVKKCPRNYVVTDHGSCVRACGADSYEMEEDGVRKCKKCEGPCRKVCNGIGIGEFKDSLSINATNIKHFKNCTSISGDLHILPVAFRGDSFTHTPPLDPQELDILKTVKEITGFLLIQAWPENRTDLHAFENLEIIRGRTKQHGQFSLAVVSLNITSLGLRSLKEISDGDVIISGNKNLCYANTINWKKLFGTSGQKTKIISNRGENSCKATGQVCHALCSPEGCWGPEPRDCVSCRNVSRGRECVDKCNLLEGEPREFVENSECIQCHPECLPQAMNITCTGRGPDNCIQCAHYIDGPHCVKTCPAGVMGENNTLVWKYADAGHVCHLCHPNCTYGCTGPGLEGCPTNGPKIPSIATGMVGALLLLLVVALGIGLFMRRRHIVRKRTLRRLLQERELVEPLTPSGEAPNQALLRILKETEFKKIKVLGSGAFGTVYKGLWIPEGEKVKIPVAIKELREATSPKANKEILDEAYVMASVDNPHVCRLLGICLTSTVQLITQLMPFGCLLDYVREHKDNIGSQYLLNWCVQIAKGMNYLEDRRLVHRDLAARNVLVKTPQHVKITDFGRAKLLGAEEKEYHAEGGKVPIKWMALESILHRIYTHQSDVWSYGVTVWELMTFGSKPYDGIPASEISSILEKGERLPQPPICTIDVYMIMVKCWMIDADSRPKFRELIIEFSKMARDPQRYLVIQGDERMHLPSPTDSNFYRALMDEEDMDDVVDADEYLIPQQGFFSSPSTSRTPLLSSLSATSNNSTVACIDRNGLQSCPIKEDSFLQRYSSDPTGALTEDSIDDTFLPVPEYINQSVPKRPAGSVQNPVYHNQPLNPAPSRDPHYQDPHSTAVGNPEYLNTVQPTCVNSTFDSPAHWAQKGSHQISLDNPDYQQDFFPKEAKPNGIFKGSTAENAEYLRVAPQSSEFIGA
inhibition at 1 µM (BRAF) [%],inhibition at 10 µM (BRAF) [%],IC50 (EGFR-L858R) [nM],IC50 (wild-type EGFR) [nM],Structure (SMILES)
-7,21,1.2,1.47,"C=CC(=O)Nc1cccc(-n2c(=O)cnc3cnc(Nc4ccc(N5CCN(C)CC5)cc4)nc32)c1 [Compound 020, N-(3-(2-(4-(4-methyl-1-piperazinyl)-phenylamino)-7-oxo-8(7H)-pteridin-yl)phenyl) acrylamide]"
0.35,-5.2,2.36,3.67,"C=CC(=O)Nc1cccc(-n2c(=O)cnc3cnc(Nc4ccc(N5CCN(C)CC5)cc4OC)nc32)c1 [Compound 032, N-(3-(2-(2-methoxy-4-(4-methyl-1-piperazinyl)-phenylamino)-7-oxo-8(7H)-pteridin-yl)phenyl)acrylamide]"
